According to PubChem BioAssay AID248 (DTP/NCI, 2004):
Several values for one entry are separate records, joined by “and”; a condition that tells them apart may be missing. Equal entries are not always repeated. Toxic doses and inconclusive results are not listed. Rule as the data show it: active = T/C of 150% or more; inactive = T/C below 125%.

Test system: L1210 leukemia ip in BDF1 mice, survival T/C
Test: NCI In Vivo Anticancer Drug Screen. Data for tumor model L1210 Leukemia (intraperitoneal) in B6D2F1 (BDF1) mice
Details: endpoint: mean survival time, higher = longer survival
Outline: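 Survival endpoint. Drug-treated group vs vehicle group, expressed as T divided by C. Tumor passaged by transplantation.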

[1] = dose: 100.0 mg/kg/injection, schedule: Q01DX001 (ip), vehicle: other
[2] = dose: 200.0 mg/kg/injection, schedule: Q01DX001 (ip), vehicle: other
[3] = dose: 400.0 mg/kg/injection, schedule: Q01DX001 (ip), vehicle: other
[4] = dose: 50.0 mg/kg/injection, schedule: Q01DX009 (ip), vehicle: Klucel (hydroxypropylcellulose) (HPC)
[5] = dose: 100.0 mg/kg/injection, schedule: Q04DX003 (ip), vehicle: Klucel (hydroxypropylcellulose) (HPC)
[6] = dose: 200.0 mg/kg/injection, schedule: Q04DX003 (ip), vehicle: Klucel (hydroxypropylcellulose) (HPC)
[7] = dose: 400.0 mg/kg/injection, schedule: Q04DX003 (ip), vehicle: Klucel (hydroxypropylcellulose) (HPC)
[8] = dose: 100.0 mg/kg/injection, schedule: Q04DX003 (ip), vehicle: saline with Tween-80
[9] = dose: 200.0 mg/kg/injection, schedule: Q04DX003 (ip), vehicle: saline with Tween-80
[10] = dose: 400.0 mg/kg/injection, schedule: Q04DX003 (ip), vehicle: saline with Tween-80

Measured: T/C

CC(C)(C)C1CCCC(NC(=O)N(CCCl)N=O)C1 (stereo unspecified)
active: dose: 46.0 mg/kg/injection, schedule: Q01DX001 (ip), vehicle: other 153 % of control | dose: 93.0 mg/kg/injection, schedule: Q01DX001 (ip), vehicle: other 187 % of control | dose: 187.0 mg/kg/injection, schedule: Q01DX001 (ip), vehicle: other 238 % of control | dose: 250.0 mg/kg/injection, schedule: Q01DX001 (ip), vehicle: other 218 % of control | dose: 375.0 mg/kg/injection, schedule: Q01DX001 (ip), vehicle: other 164 % of control
inactive: dose: 6.0 mg/kg/injection, schedule: Q01DX001 (ip), vehicle: other 111 % of control | dose: 12.0 mg/kg/injection, schedule: Q01DX001 (ip), vehicle: other 108 % of control | dose: 500.0 mg/kg/injection, schedule: Q01DX001 (ip), vehicle: other 118 % of control

C/C=C\C=N\N(C)C
inactive: dose: 50.0 mg/kg/injection, schedule: Q01DX009 (ip), vehicle: saline 110 % of control | dose: 100.0 mg/kg/injection, schedule: Q01DX009 (ip), vehicle: saline 106 % of control | dose: 100.0 mg/kg/injection, schedule: Q04DX003 (ip), vehicle: saline 102 % of control | dose: 200.0 mg/kg/injection, schedule: Q04DX003 (ip), vehicle: saline 97 % of control

CCCCCCS(=O)(=O)c1n[nH]c(=O)[nH]c1=O
inactive: [1] 98 % of control | [2] 95 % of control | [3] 101 % of control

C/C(=C\c1ccc(C)cc1)[N+](=O)[O-]
inactive: dose: 50.0 mg/kg/injection, schedule: Q01DX001 (ip), vehicle: other 108 % of control | [1] 100 % of control | [2] 92 % of control | [3] 103 % of control

O=C1c2ccccc2C(=O)N1Cc1cccc([N+](=O)[O-])c1
inactive: dose: 12.5 mg/kg/injection, schedule: Q01DX009 (ip), vehicle: Klucel (hydroxypropylcellulose) (HPC) 87 % of control | dose: 25.0 mg/kg/injection, schedule: Q01DX009 (ip), vehicle: Klucel (hydroxypropylcellulose) (HPC) 87 % of control | [4] 94 % of control | [5] 93 % of control | [6] 97 % of control | [7] 90 % of control

CC(=O)NC(c1ccccc1)C(NC(=O)c1ccccc1)c1ccccc1 (stereo unspecified)
inactive: dose: 100.0 mg/kg/injection, schedule: Q01DX001 (ip), vehicle: saline with Tween-80 92 % of control | dose: 200.0 mg/kg/injection, schedule: Q01DX001 (ip), vehicle: saline with Tween-80 94 % of control | dose: 400.0 mg/kg/injection, schedule: Q01DX001 (ip), vehicle: saline with Tween-80 89 % of control

COc1ccc(C2OC23CC(C)(C)c2ccccc2C3=O)cc1 (stereo unspecified)
inactive: [8] 93 % of control | [9] 89 % of control | [10] 94 % of control

Cc1cccc(C)c1NCC(=O)NN
inactive: dose: 100.0 mg/kg/injection, schedule: Q04DX002 (ip), vehicle: Klucel (hydroxypropylcellulose) (HPC) 106 % of control | dose: 200.0 mg/kg/injection, schedule: Q04DX002 (ip), vehicle: Klucel (hydroxypropylcellulose) (HPC) 106 % of control | dose: 400.0 mg/kg/injection, schedule: Q04DX002 (ip), vehicle: Klucel (hydroxypropylcellulose) (HPC) 120 % of control

Nc1nc(SCc2ccccc2)c2ncn(C3CCCO3)c2n1 (stereo unspecified)
inactive: dose: 25.0 mg/kg/injection, schedule: Q01DX Z (ip), vehicle: methylcellulose (MC) 101 % of control | dose: 50.0 mg/kg/injection, schedule: Q01DX Z (ip), vehicle: methylcellulose (MC) 120 % of control

COCOc1ccc(-c2ccc(O)cc2)cc1
inactive: [8] 91 % of control | [9] 91 % of control | [10] 94 % of control

CC(=O)OC(C)C(C)C(=O)OCC12C3CC4(C)C(=CCC5C6(C)CCC(OC7OC(C(=O)O)C(OC8OC(CO)C(O)C(O)C8O)C(O)C7OC7OCC(O)C(O)C7O)C(C)(CO)C6CCC54C)C1CC(C)(C)C(O3)C2O (stereo unspecified)
inactive: dose: 5.0 mg/kg/injection, schedule: Q01DX001 (sc), vehicle: steriod suspending solution 105 % of control | dose: 50.0 mg/kg/injection, schedule: Q01DX001 (sc), vehicle: steriod suspending solution 112 % of control

CC1CC(C#N)Nc2ccccc2N1 (stereo unspecified)
inactive: dose: 50.0 mg/kg/injection, schedule: Q01DX001 (ip), vehicle: Klucel (hydroxypropylcellulose) (HPC) 109 % of control | [4] 96 % of control | dose: 50.0 mg/kg/injection, schedule: Q04DX003 (ip), vehicle: Klucel (hydroxypropylcellulose) (HPC) 98 % of control | dose: 100.0 mg/kg/injection, schedule: Q01DX001 (ip), vehicle: Klucel (hydroxypropylcellulose) (HPC) 106 % of control | dose: 100.0 mg/kg/injection, schedule: Q01DX009 (ip), vehicle: Klucel (hydroxypropylcellulose) (HPC) 93 % of control and 121 % of control | [5] 100 % of control and 104 % of control | dose: 200.0 mg/kg/injection, schedule: Q01DX001 (ip), vehicle: Klucel (hydroxypropylcellulose) (HPC) 104 % of control | dose: 200.0 mg/kg/injection, schedule: Q01DX009 (ip), vehicle: Klucel (hydroxypropylcellulose) (HPC) 86 % of control | [6] 96 % of control and 90 % of control | [7] 101 % of control
